“And” between values parts separate entries of the source, which are not always exact repeats. Equal entries are not always repeated. Where two headings read alike, the source gives them in different places.
Assays:
[1] = tested on: VEGF-induced retinal vascular permeability; assay: Retinal vascular permeability suppression by intravitreal injection in rat model where VEGF-induced retinal vascular permeability was increased; type: in vivo; conditions: intravitreal 10, 30 or 100 μg/eye mixed with rat VEGF164 400 ng/eye; vitreous protein at 24 hours; FIG. 2
Method: Experiment 2. Retinal vascular permeability suppression by intravitreal injection of Compound A in rat model where VEGF-induced retinal vascular permeability was increased As experimental animals, male Brown Norway rats aged 8 weeks {CHARLES RIVER LABORATORIES JAPAN, INC.} were used. A mixture of rat VEGF164 {400 ng/eye, R&D Systems, Inc.} and Compound A (10 μg/eye, 30 μg/eye or 100 μg/eye) dissolved or suspended in a base was injected into the vitreous body of each eye of rats <Compound A-administered group>. In the vitreous body of each eye of rats of a base-administered group, a mixture of rat VEGF164 and the base of the same volume as that of the Compound A-administered group was injected. As the base, an aqueous base was used. In the vitreous body of each eye of rats of a normal control group, D-PBS (-) {Sigma-Aldrich Corporation} was injected. Each group included four rats <eight eyeballs>. At 24 hours after intravitreal injection of VEGF, rats were euthanized, and the eyeballs of the rats were enucleated while avoiding contamination with blood. […] The protein concentration in the sampled vitreous body was determined by the Bradford method. The rate of suppressing an increase of the retinal vascular permeability was calculated according to the following equation X. Rate of suppressing increase of retinal vascular permeability (%)=(PB-PX)/(PB-PA)×100 [Equation X] […]

[2] = Neural retina concentration after intravitreal injection to rats (LC-MS); type: in vivo; conditions: rat, intravitreal 10 μg/eye
Method: (§1) Experiment 3. Ocular tissue distribution and systematic exposure of Compound A orally administered or intravitreally injected
(§2) As experimental animals, male Crl:CD <SD> rats aged 8 weeks {CHARLES RIVER LABORATORIES JAPAN, INC.} were used.
In the vitreous body of each eye of rats, Compound A dissolved or suspended in a base was injected at 10 μg/eye. At 1, 2, 4 and 24 hours after intravitreal injection, neural retina was sampled, and the concentration of Compound A in the neural retina was quantified by LC-MS. Each group included two to three rats <four to six eyeballs>.
(§3) Transition of plasma concentration of Compound A orally administered (100 mg/kg) was shown in Table 1, transition of neural retina concentration of Compound A orally administered (100 mg/kg) was shown in Table 2, and transition of neural retina concentration of Compound A intravitreally injected (10 μg/eye) was shown in Table 3.

[3] = tested on: VEGF-induced retinal vascular permeability; assay: Retinal vascular permeability suppression by oral administration in rat model where VEGF-induced retinal vascular permeability was increased; type: in vivo; conditions: oral 10, 30 or 100 mg/kg; vitreous protein 24 hours after intravitreal rat VEGF164 400 ng/eye; FIG. 1
Method: Experiment 1. Retinal vascular permeability suppression by oral administration of Compound A in rat model where VEGF-induced retinal vascular permeability was increased A rat model where VEGF-induced retinal vascular permeability was increased was used to evaluate the ability of suppressing an increase of the retinal vascular permeability by Compound A. The animal model was prepared with appropriate modifications based on Non-Patent Literature 3, etc. As experimental animals, male Brown Norway rats aged 8 weeks {CHARLES RIVER LABORATORIES JAPAN, INC.} were used. Inside the vitreous body of each eye of rats, rat VEGF164 {400 ng/eye, R&D Systems, Inc.} was injected <VEGF-administered group>. Inside the vitreous body of each eye of rats in a normal control group, D-PBS (-) {Sigma-Aldrich Corporation} was intravitreally injected. Each group included four rats <eight eyeballs>. […] The protein concentration in the sampled vitreous body was determined by the Bradford method. The rate of suppressing an increase of the retinal vascular permeability was calculated according to the following equation X. Rate of suppressing increase of retinal vascular permeability (%)=(PB-PX)/(PB-PA)×100 [Equation X] […]

[4] = Plasma concentration after single oral administration to rats (LC-MS); type: in vivo; conditions: rat, oral 100 mg/kg single; for concentration at 0.5 h / concentration at 1 h / concentration at 2 h / concentration at 4 h / concentration at 6 h / concentration at 24 h: male, Crl:CD <SD>, plasma, po, 100 mg/kg
Method: as §1, §2
(§4) Compound A suspended in a 1% (w/v) methylcellulose aqueous solution was orally administered to rats at 100 mg/kg. At 0.5, 1, 2, 4, 6 and 24 hours after oral administration, plasma and neural retina were sampled, and the concentrations of Compound A in the plasma and in the neural retina were quantified by liquid chromatography mass spectrometry <LC-MS>.
as §3

[5] = Neural retina concentration after single oral administration to rats (LC-MS); type: in vivo, rat
Method: as §1, §2, §4, §3

concentration at 1 h ([2]; male, Crl:CD <SD>, neural retina, other: intravitreal injection, 10 μg/eye, 1 hr, average, read-out: Neural retina concentration of Compound A, Average): 45000 ng/mL
concentration at 1 h ([2]; male, Crl:CD <SD>, neural retina, other: intravitreal injection, 10 μg/eye, 1 hr, individual eye, read-out: Neural retina concentration of Compound A): 39500 ng/mL
concentration at 2 h ([2]; male, Crl:CD <SD>, neural retina, other: intravitreal injection, 10 μg/eye, 2 hr, average, read-out: Neural retina concentration of Compound A, Average): 9690 ng/mL
concentration at 4 h ([2]; male, Crl:CD <SD>, neural retina, other: intravitreal injection, 10 μg/eye, 4 hr, average, read-out: Neural retina concentration of Compound A, Average): 1550 ng/mL
concentration at 0.5 h ([4]; 0.5 hr, average, read-out: Plasma concentration of Compound A, Average): 6320 ng/mL
concentration at 0.5 h ([4]; 0.5 hr, individual animal, read-out: Plasma concentration of Compound A): 5810 ng/mL
concentration at 1 h ([4]; 1 hr, average, read-out: Plasma concentration of Compound A, Average): 8260 ng/mL
concentration at 1 h ([4]; 1 hr, individual animal, read-out: Plasma concentration of Compound A): 7950 ng/mL
concentration at 2 h ([4]; 2 hr, average, read-out: Plasma concentration of Compound A, Average): 6350 ng/mL
concentration at 2 h ([4]; 2 hr, individual animal, read-out: Plasma concentration of Compound A): 6520 ng/mL
concentration at 4 h ([4]; 4 hr, average, read-out: Plasma concentration of Compound A, Average): 4140 ng/mL
concentration at 4 h ([4]; 4 hr, individual animal, read-out: Plasma concentration of Compound A): 4860 ng/mL
concentration at 6 h ([4]; 6 hr, average, read-out: Plasma concentration of Compound A, Average): 4050 ng/mL
concentration at 6 h ([4]; 6 hr, individual animal, read-out: Plasma concentration of Compound A): 3040 ng/mL
concentration at 24 h ([4]; 24 hr, average, read-out: Plasma concentration of Compound A, Average): 20 ng/mL
concentration at 24 h ([4]; 24 hr, individual animal, read-out: Plasma concentration of Compound A): 30 ng/mL
Plasma concentration of Compound A ([4]; 0.5 hr, individual animal): 6830 ng/mL
Plasma concentration of Compound A ([4]; 1 hr, individual animal): 8570 ng/mL
Plasma concentration of Compound A ([4]; 2 hr, individual animal): 6180 ng/mL
Plasma concentration of Compound A ([4]; 4 hr, individual animal): 3410 ng/mL
Plasma concentration of Compound A ([4]; 6 hr, individual animal): 5060 ng/mL
Plasma concentration of Compound A ([4]; 24 hr, individual animal): 20 ng/mL
passage through the blood-retina barrier [5]: passes through the blood-retina barrier
concentration at 0.5 h ([5]; male, Crl:CD <SD>, rat, neural retina, po, 100 mg/kg, rat, oral 100 mg/kg single, 0.5 hr, average, read-out: Neural retina concentration of Compound A, Average): 3740 ng/mL
concentration at 0.5 h ([5]; male, Crl:CD <SD>, rat, neural retina, po, 100 mg/kg, rat, oral 100 mg/kg single, 0.5 hr, individual eye, read-out: Neural retina concentration of Compound A): 2960 ng/mL
concentration at 1 h ([5]; male, Crl:CD <SD>, rat, neural retina, po, 100 mg/kg, rat, oral 100 mg/kg single, 1 hr, average, read-out: Neural retina concentration of Compound A, Average): 3860 ng/mL
concentration at 1 h ([5]; male, Crl:CD <SD>, rat, neural retina, po, 100 mg/kg, rat, oral 100 mg/kg single, 1 hr, individual eye, read-out: Neural retina concentration of Compound A): 3930 ng/mL
concentration at 2 h ([5]; male, Crl:CD <SD>, rat, neural retina, po, 100 mg/kg, rat, oral 100 mg/kg single, 2 hr, average, read-out: Neural retina concentration of Compound A, Average): 2720 ng/mL
concentration at 2 h ([5]; male, Crl:CD <SD>, rat, neural retina, po, 100 mg/kg, rat, oral 100 mg/kg single, 2 hr, individual eye, read-out: Neural retina concentration of Compound A): 2660 ng/mL
concentration at 4 h ([5]; male, Crl:CD <SD>, rat, neural retina, po, 100 mg/kg, rat, oral 100 mg/kg single, 4 hr, average, read-out: Neural retina concentration of Compound A, Average): 2390 ng/mL
concentration at 4 h ([5]; male, Crl:CD <SD>, rat, neural retina, po, 100 mg/kg, rat, oral 100 mg/kg single, 4 hr, individual eye, read-out: Neural retina concentration of Compound A): 2300 ng/mL
concentration at 6 h ([5]; male, Crl:CD <SD>, rat, neural retina, po, 100 mg/kg, rat, oral 100 mg/kg single, 6 hr, average, read-out: Neural retina concentration of Compound A, Average): 1920 ng/mL
Neural retina concentration of Compound A ([5]; rat, oral 100 mg/kg single, 0.5 hr, individual eye, 100 mg/kg): 4.42 µg/mL and 4.89 µg/mL and 2.70 µg/mL
Neural retina concentration of Compound A ([5]; rat, oral 100 mg/kg single, 1 hr, individual eye, 100 mg/kg): 4.48 µg/mL and 3.24 µg/mL and 3.80 µg/mL
Neural retina concentration of Compound A ([5]; rat, oral 100 mg/kg single, 2 hr, individual eye, 100 mg/kg): 2.12 µg/mL and 3.38 µg/mL
Neural retina concentration of Compound A ([5]; rat, oral 100 mg/kg single, 4 hr, individual eye, 100 mg/kg): 2.54 µg/mL and 2.29 µg/mL and 2.43 µg/mL
Compound: C[C@H]1CN(C(=O)CC#N)[C@]12CCN(c1ncnc3[nH]ccc13)C2 [Compound A, 3-[(3S,4R)-3-Methyl-6-(7H-pyrrolo[2,3-d]pyrimidin-4-yl)-1,6-diazaspiro[3.4]octan-1-yl]-3-oxopropanenitrile]
suppression of retinal vascular permeability [1]: suppression of retinal vascular permeability
Neural retina concentration of Compound A ([2]; 1 hr, individual eye): 52.66 µg/mL and 45.53 µg/mL and 42.17 µg/mL
Neural retina concentration of Compound A ([2]; 2 hr, individual eye): 6.28 µg/mL and 13.49 µg/mL and 4.73 µg/mL and 12.71 µg/mL and 15.78 µg/mL and 5.13 µg/mL
Neural retina concentration of Compound A ([2]; 4 hr, individual eye): 2.07 µg/mL and 2.64 µg/mL and 0.27 µg/mL and 1.42 µg/mL and 1.66 µg/mL and 1.26 µg/mL
Neural retina concentration of Compound A ([2]; 24 hr, individual eye): BLQ (Below the lower limit of quantification (ca. 0.16 μg/g))
suppression of retinal vascular permeability [3]: suppression of retinal vascular permeability
Neural retina concentration of Compound A ([5]; rat, oral 100 mg/kg single, 6 hr, individual eye, 100 mg/kg): 2.90 µg/mL and 2.24 µg/mL and 1.05 µg/mL and 1.47 µg/mL
Neural retina concentration of Compound A ([5]; rat, oral 100 mg/kg single, 24 hr, individual eye): BLQ (Below the lower limit of quantification (ca. 0.16 μg/g))

From patent US20160367556A1, “Therapeutic Agent for Ocular Disease or Prophylactic Agent for Ocular Disease” (Japan Tobacco Inc., priority 2013, published 2016)
